According to patent US20230126310A1 (priority 2020, published 2023):
Structures can show the parent of a compound that is named as a salt. Where two headings read alike, the source gives them in different places. Square brackets hold non-standard residues; d marks the D form. Peptide text beside a SMILES is read from it. NMeF = CN[C@@H](Cc1ccccc1)C(=O)O

Tests used:
SARS-CoV-2 [1] = system: SARS-CoV-2
SARS-CoV-2 [2] = experiment: microbe, parasite or virus in culture; conditions: Severe acute respiratory syndrome coronavirus 2, Caco-2, 48 h; for inhibition at 10 µM: read-out: % Inh. (% Inhibition of SARS-CoV-2)

Compound	% Inh. (% Inhibition of SARS-CoV-2) (SARS-CoV-2 [1]; 10 µM)	also measured
Cc1cc(-c2ccc(CC(=O)Nc3ccc(-c4cccnc4)cc3)cc2)ccn1 [Wnt-C59 (C59)]	82.3%	
Skepinone-L	86.1%	
CN(C)C(=O)C(=O)c1cn(C)c2cc(Cl)c(C(=O)N3CCC(Cc4ccc(F)cc4)CC3)cc12 [SX-011]	94.1%	
Nc1ccc2ncnc(NCCc3ccc(Oc4ccccc4)cc3)c2c1 [QNZ (EVP4593)]	95.8%	
COc1c(C)cnc(Cn2cc(C#CCC(C)(C)O)c3c(Cl)nc(N)nc32)c1C [EC-144]	95.0%	
CCOC(=O)N1CCC(=C2c3ccc(Cl)cc3CCc3cccnc32)CC1 [LORATADINE]		% Inh (% inhibition of virus infection) (SARS-CoV-2 [1]; comparative experiments, Examples 1 and 2): 91.4%
Cl.O.O=CN1CCC(C(=O)NCCN2CCC(=C3c4ccccc4C=Cc4ccccc43)CC2)CC1 [AT-1015]	75.4%	
CN1c2cc3c(cc2N=C(c2ccc(C(=O)O)cc2)c2ccccc21)C(C)(C)CCC3(C)C [LE-135]	105.5%	
O=S(=O)(c1cccc2c(Cl)cccc12)N1CCCNCC1 [ML-9]	91.9%	
CNc1cc2c(Nc3cccc(Br)c3)ncnc2cn1 [PD-158780]	98.3%	
Taltobulin (trifluoroacetate)	83.8%	
Tocofersolan	95.2%	
COc1ccc(-c2ccc3c(N4CCOC[C@@H]4C)nc(N4CCOC[C@@H]4C)nc3n2)cc1CO [AZD8055]	105.2%	
CC[C@@]1(O)C(=O)OCc2c1cc1n(c2=O)Cc2cc3c(N)cccc3nc2-1 [9-aminocamptothecin]	80.3%	
CCn1c(=O)n(C2=C(CO)CN(CC3CCCCCCC3)CC2)c2ccccc21 [trap-101]	77.9%	
Clc1ccc(N/N=C(\c2ccccc2)c2ccccn2)nc1 [JIB04 (NSC693627)]	106.4%	
COc1ccccc1C1(O)CCN(CCCn2c3ccccc3c3ccccc32)CC1 [NNC-05-2090]	71.8%	
CC(C)(Cc1c[nH]c2ccc(Cl)cc12)NCCOc1ccccc1OCC1CC1 [RS-17053]	103.3%	
CCOC(=O)c1c(C)[nH]c2ccc3c(c12)CN1CCc2cc(OC)ccc2C1O3 (centres unmarked) [PD-102807]	121.8%	
COCCN1CCN(Cc2ccc(-c3n[nH]c4c3C(=O)c3c(NC(=O)NN5CCOCC5)cccc3-4)cc2)CC1 [RGB-286638 (free base)]	70.2%	
O=C(NNc1nc2cc(F)ccc2n2cccc12)c1cnccn1 [SC144]	108.7%	
CC(=O)N1CCN(CCOc2ccc(C3CCN(C4=Nn5c(nnc5C(F)(F)F)CC4)CC3)cc2)CC1 [AZD3514]	96.8%	
Cc1ccc(NC(=O)c2cccc(C(C)(C)C#N)c2)cc1Nc1ccc2ncn(C)c(=O)c2c1 [AZ-628]	99.6%	

Compound	% Inh. (% Inhibition of SARS-CoV-2) (SARS-CoV-2 [1]; 10 µM)	also measured
CCCCCCCC/C=C/CCCCCCCC(=O)OC[C@H]1O[C@@H](n2ccc(N)nc2=O)C(F)(F)[C@@H]1O [Gemcitabine (elaidate)]	111.3%	
Cc1nc(NC(=O)N2CCC[C@H]2C(N)=O)sc1-c1csc(C(C)(C)C)n1 [A66]	54.4%	
OC12C3C4CC5C6C4C1C6C(C53)N2CCc1cccc(F)c1 (centres unmarked) [TC1]	53.2%	
O=C(/C=C/c1ccc2ccccc2n1)c1ccncc1 [PFK-015]	101.3%	IC50 (SARS-CoV-2 [1]): 7.03 µM; pIC50 (SARS-CoV-2 [1]): 5.15
CC(C)(C)c1ccc(-c2nc3c(N4CCN(Cc5ccc6nccnc6c5)CC4)cccc3[nH]2)cc1 [WAY-207024]	77.1%	
CCN1/C(=C/C(C)=O)Sc2ccc(OC)cc21 [TG003]	55.4%	
CCN1CCN(Cc2ccc(C(=O)Nc3ccc(C)c(Oc4ccc5c(c4)CC(=O)N5)c3)cc2C(F)(F)F)CC1 [DDR1-IN-1]	77.6%	
COC(=O)Nc1ccc(-c2nc(N3CCOCC3)c3cnn(C4CCN(Cc5cccnc5)CC4)c3n2)cc1 [WYE-687]	105.8%	
Cc1ccc(CC2(O)CCN(CCOc3ccc(O)cc3)CC2)cc1 [CO-101244]	60.2%	
O=C(O)[C@]1(Cc2cccc(Nc3nccs3)n2)CC[C@@H](Oc2cccc(Cl)c2F)CC1 [MK-5108 (VX-689)]	77.9%	
Nc1nccc(Oc2ccc(NC(=O)c3c[nH]cc(-c4ccc(F)cc4)c3=O)cc2F)c1Cl [BMS 794833]	98.3%	
CCCCCCCCCCCCCCCC[N+](C)(C)C.[Br-] [CETRIMONIUM BROMIDE]	87.7%	
FC(F)(F)c1cc(CO[C@H]2CCCN[C@H]2c2ccccc2)cc(C(F)(F)F)c1 [L-733060]	53.9%	
c1ccc(C(NCCNC(c2ccccc2)c2ccccc2)c2ccccc2)cc1 [AMN-082]	71.9%	
COC(=O)Nc1ccc(-c2nc(N3CCOCC3)c3cnn(C4CCN(C(=O)OC)CC4)c3n2)cc1 [WYE-354]	89.9%	
Cc1cccc(CC(=O)N2CCc3c2ccc(-c2cn(C)c4ncnc(N)c24)c3F)n1 [GSK2656157]	95.0%	
CNc1ncc2cc(-c3cc(NC(=O)NCCC(C)(C)C)c(F)cc3C)c(C)nc2n1 [LY3009120]	101.6%	
Cc1cc(-c2nc3cc(F)ccc3s2)ccc1NC(=O)[C@@H](N)CCCCN.Cl.Cl [phortress]	67.1%	
COc1ccc(CCN(C)CCCOc2ccc(S(=O)(=O)c3c(C(C)C)c4ccccc4n3C)cc2)cc1OC.O=C(O)C(=O)O [SR-33805 oxalate]	67.7%	
CSCC[C@H](NC(=O)[C@H](CC(C)C)NC(=O)[C@@H](Cc1c[nH]c2ccccc12)NC(=O)[C@H](Cc1ccccc1)N(C)C(=O)[C@@H](Cc1c[nH]c2ccccc12)NC(=O)[C@@H](N)CCCNC(=N)N)C(N)=O [Antagonist-G] (H-R[dW][NMeF][dW]LM-NH2; N-terminus and C-terminus assumed)		% Inh. (% Inhibition of SARS-CoV-2) (SARS-CoV-2 [1]; 48 h, 10 μM): 58.0%
CC(C)n1nc(-c2ccc3oc(N)nc3c2)c2c(N)ncnc21 [INK 128 (MLN0128)]	84.9%	
Cc1c(Cn2c(C)nc3c(C(=O)O)cc(N4CCOCC4)cc32)cccc1C(F)(F)F [GSK2636771]	88.1%	
O=C(Nc1ccccc1)N1CCN(c2nc(-c3ccccc3)ns2)CC1 [JNJ 1661010]	93.8%	

Compound	% Inh. (% Inhibition of SARS-CoV-2) (SARS-CoV-2 [1]; 10 µM)	also measured
Cc1cc(C)c(NC(=O)C2CC3CCC2C3)c(C)c1 (centres unmarked) [ML-213]	69.5%	
CN1CC[C@@H](c2c(O)cc(O)c3c(=O)cc(-c4ccccc4Cl)oc23)[C@@H]1CO.Cl [P276-00]	94.4%	
CC1(C)CC[C@]2(C(=O)O)CC[C@]3(C)[C@H](C(=O)C=C4[C@@]5(C)C=C(C#N)C(=O)C(C)(C)[C@@H]5CC[C@]43C)[C@@H]2C1 [Bardoxolone]		inhibition at 10 µM (SARS-CoV-2 [2]): 66%
COc1c(O[C@@H]2O[C@H](CO)[C@@H](O)[C@H](O)[C@H]2O)cc2c(c1OC)-c1ccc(SC)c(=O)cc1[C@@H](NC(C)=O)CC2 [thiocolchicoside]		inhibition at 10 µM (SARS-CoV-2 [2]): 54.2%
CCN1C(=O)CNc2ncc(-c3ccc(-c4nc[nH]n4)nc3C)nc21 [CC-115]		inhibition at 10 µM (SARS-CoV-2 [2]): 96.6%
COc1ccccc1N1CCN(CC(O)COc2cccc3ccccc23)CC1 (centres unmarked) [NAFTOPIDIL]		inhibition at 10 µM (SARS-CoV-2 [2]): 90.6%
CCCCNc1cc(C(=O)O)cc(S(N)(=O)=O)c1Oc1ccccc1 [BUMETANIDE]		inhibition at 10 µM (SARS-CoV-2 [2]): 87.5%
COc1ccc(C(Cl)=C(c2ccc(OC)cc2)c2ccc(OC)cc2)cc1 [chlorotrianisene]		inhibition at 10 µM (SARS-CoV-2 [2]): 55.3%
Clc1ccc(C(Cn2ccnc2)OCc2c(Cl)cccc2Cl)c(Cl)c1 (centres unmarked) [Isoconazole nitrate (Travogen), Isoconazole nitrate]		inhibition at 10 µM (SARS-CoV-2 [2]): 75.9%
O=C1c2cccc3c2[C@H](CCC3)CN1[C@@H]1CN2CCC1CC2 [Palonosetron HCl]		inhibition at 10 µM (SARS-CoV-2 [2]): 57.4%
CC(C)Oc1ccc2c(=O)c(-c3ccccc3)coc2c1 [IPRIFLAVONE]		inhibition at 10 µM (SARS-CoV-2 [2]): 51.4%
O=C1NCCN1CCN1CCC(c2cn(-c3ccc(F)cc3)c3ccc(Cl)cc23)CC1 [sertindole]		inhibition at 10 µM (SARS-CoV-2 [2]): 90.3%
Nc1ccc2cc3ccc(N)cc3nc2c1 [PROFLAVINE HEMISULFATE]		IC50 (SARS-CoV-2 [2]): 26.7 µM; inhibition at 10 µM (SARS-CoV-2 [2]): 95.8%; IC50 (SARS-CoV-2 [2]; read-out: pIC50 (converted)): 26.9 µM
CNC(=O)c1cc(Oc2ccc(NC(=O)Nc3cc(C(C)(C)C)nn3-c3ccc4ncccc4c3)c(F)c2)ccn1 [DCC-2036 (Rebastinib), Rebastinib]		inhibition at 10 µM (SARS-CoV-2 [2]): 70%
COC(=O)C1=C(C)NC(C)=C(C(=O)O[C@H]2CCN(Cc3ccccc3)C2)[C@H]1c1cccc([N+](=O)[O-])c1 [Barnidipine HCl]		IC50 (SARS-CoV-2 [2]): 24.3 µM; inhibition at 10 µM (SARS-CoV-2 [2]): 83.5%; IC50 (SARS-CoV-2 [2]; read-out: pIC50 (converted)): 24.5 µM
COc1ccc(-n2nc(C(N)=O)c3c2C(=O)N(c2ccc(N4CCCCC4=O)cc2)CC3)cc1 [APIXABAN]		inhibition at 10 µM (SARS-CoV-2 [2]): 78%
N#CC(=C(/N)Sc1ccccc1N)/C(C#N)=C(\N)Sc1ccccc1N [U-0126]		inhibition at 10 µM (SARS-CoV-2 [2]): 79.1%
C[C@H]1O[C@@H](O[C@H]2[C@@H](O)C[C@H](O[C@H]3[C@@H](O)C[C@H](O[C@H]4CC[C@@]5(C)[C@H](CC[C@@H]6[C@@H]5C[C@@H](O)[C@]5(C)[C@@H](C7=CC(=O)OC7)CC[C@]65O)C4)O[C@@H]3C)O[C@@H]2C)C[C@H](O)[C@@H]1O [DIGOXIN]		inhibition at 10 µM (SARS-CoV-2 [2]): 70.6%
Oc1c(Cl)cc(Cl)c(Cl)c1Cc1c(O)c(Cl)cc(Cl)c1Cl [HEXACHLOROPHENE]		inhibition at 10 µM (SARS-CoV-2 [2]): 92.9%
COc1cccc2cc(-c3nc([C@H]4CC[C@H](C(=O)O)CC4)n4ncnc(N)c34)[nH]c12 [OSI-027]		inhibition at 10 µM (SARS-CoV-2 [2]): 105%
C[C@]12CC[C@H](O)C[C@H]1CC[C@@H]1[C@@H]2CC[C@]2(C)[C@@H](C3=CC(=O)OC3)CC[C@]12O [digitoxigenin]		inhibition at 10 µM (SARS-CoV-2 [2]): 60%
N#CN1CCCC1 [pyrrolidine-1-carbonitrile]		inhibition at 10 µM (SARS-CoV-2 [2]): 65.9%
